We go through nine compounds from patent publication US20250281424A1 (New York Blood Center, Inc, priority 2020, published 2025).

This assay deals with T1, human PF4 (Homo sapiens, UniProt P02776).
T1 construct: PF4 is a 70 amino acid, lysine-rich 7.8 kDa platelet-specific protein; made in house; host or cells: Escherichia coli BL21DE3 pLysS (pT7-7) and/or Drosophila S2 cells
T1 sequence (P02776 32-101): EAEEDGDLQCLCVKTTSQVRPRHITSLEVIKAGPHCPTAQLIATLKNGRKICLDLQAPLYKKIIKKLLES
Briefly: Inhibition of PF4 tetramer formation (BS3 cross-linking, SDS-PAGE). The class given is biochemical. The settings on record: for inhibition at 5 µM: 5 μM inhibitor; for inhibition at 5 µM / inhibition at 10 µM / inhibition at 1 µM / inhibition at 3 µM: read-out: % inhibition of PF4 tetramer formation at single concentration of inhibitor; for inhibition at 10 µM: 10 μM inhibitor (column A); for IC50: read-out: IC50 of PF4 tetramer formation inhibition; for inhibition at 1 µM: 1 μM inhibitor; for inhibition at 3 µM: 3 μM inhibitor (column A). The procedure:
Compounds of Examples 1-38, 65-301, 303, 305, 307, 309, 311, 313, 314, 316, and 318-404 were tested using SDS PAGE analysis of BS3 crosslinked PF4 for their ability to prevent PF4 tetramer formation. […] See, Suvarna et al., Throm. Res, 122:211-220 (2008), which is hereby incorporated by reference, at least for a detailed description of this technique.
cDNA encoding human PF4 was cloned into the plasmid μMT/BiPN5-His A (Invitrogen Corp., Carlsbad CA) for expression in the Drosophila Expression System (Invitrogen, Carlsbad, CA). Cloning was performed using Bg1 II and Age I cloning sites. A hexanucleotide encoding Bg1 II site was then eliminated by site-directed mutagenesis so that the expressed protein contained full-length wild type (wt) PF4 or PF4^K50E with an identical sequence as their counterparts expressed in E. coli. See, method described in Sachais et al (Sachais, B. S. et al. (2012). Blood 119(25): 5955-5961). PF4 expression was induced by adding copper sulfate (0.5 mM). The induced S2 cells were incubated in serumfree Insect-Xpress™ media (Lonza, Walkersville, MD) for 3-5 days; supernatants were collected, sodium azide (0.02% final concentration) and EDTA (2.5 mM final concentration) were added, and the media were filtered through an Express® PLUS 0.22 μm filter (Millipore Corp., Billerica, MA).
Wild-type (WT) human PF4 in the pT7-7 vector (Novagen, Madison, WI) was expressed in the Escherichia coli strain BL21DE30 pLysS (Stratagene, La Jolla, CA), and purified and characterized as described by Rauova et al. (Rauova, L. et al. (2006). Blood 107(6): 2346-2353) and Park et al., (Blood, 75:1290-1295 (1990)), which are hereby incorporated by reference. Briefly, recombinant protein was isolated from the supernatant of the bacterial lysate by affinity chromatography using a HiTrap high-performance (HP) affinity column. WT PF4 was purified from the media on a heparin HiTrap® column on an ÄTKAPrime™ system (GE Healthcare) at 4° C. in Tris (10 mM), EDTA (1 mM), and pH 8 buffer. Media was loaded in buffer containing NaCl (0.5 M) and PF4 was eluted at 1.8 M NaCl using a linear gradient. Fractions containing purified PF4 as detected by silver staining of 12% NuPAGE Bis-Tris gels (Invitrogen) were pooled, concentrated and buffer exchanged into 50 mM HEPES, 0.5 M NaCl, pH—7.2 using an Amicon® Ultra centrifugal filter (3K NMWL, Millipore Corp). Protein was quantified using a BCA assay.
Compounds of Examples 1-38, 65-196, and 209-228 were then tested for their ability to inhibit PF4 tetramer formation using a cross-linking assay as described in Rauova cited above. Specifically, hPF4 (10 μg/ml) in phosphate-buffered saline (PBS) was incubated at 37° C. for 15 min in the absence of the antagonistic compounds (control sample) and presence of compounds. Cross-linking and SDS-PAGE analysis were then performed as described in “Analysis of PF4 multimerization” of Rauova. The relative amounts of PF4 in each of the monomer, dimer, trimer and tetramer form were calculated by analyzing the samples on a 12% SDS-polyacrylamide gel under reducing conditions. Bands were quantified using the Kodak ID Image Analysis system (Kodak, Rochester, NY). The SigmaMarker™ reagent served as the molecular weight standard. Data was compiled and bar graphed as % PF4 for the tetramer, trimer, dimer, and monomer as a function of concentration for the test and control samples.
This experiment was performed in a manner similar to experiment 1, but PF4 (10 μg/ml) in PBS was independently incubated with compounds of Examples 1-38, 65-196, and 209-228 for 60 min at room temperature, followed by the addition of cross-linking reagent bis(sulfosuccinimidyl)suberate (0.2 mM) for 30 min at room temperature. The reaction was stopped by adding NuPAGE® lithium dodecyl sulfate (LDS) sample buffer, and denatured by heating to 70° C. for 10 min according to the manufacturer's instructions. […]

As a reminder, the IC50 is the concentration at which inhibition is half-maximal. In the case of `C=C1C[C@@H](C(=O)C2C(=O)c3ccc(C(=O)c4ccc5c(c4)C(=O)C(C(=O)[C@@H]4CC(=C)CN4C(=O)OC(C)(C)C)C5=O)cc3C2=O)N(C(=O)OC(C)(C)C)C1` (stereo partly drawn) [Example 133, tert-butyl (2S)-2-(5-{2-[(2S)-1-[(tert-butoxy)carbonyl]-4-methylidenepyrrolidine-2-carbonyl]-1,3-dioxo-2,3-dihydro-1H-indene-5-carbonyl}-1,3-dioxo-2,3-dihydro-1H-indene-2-carbonyl)-4-methylidenepyrrolidine-1-carboxylate], the inhibition at 5 µM was 66%, the inhibition at 10 µM came out at 88% and the half-inhibitory concentration (IC50) was around 6 µM.

In the case of `O=C(NC1CC1)C1C(=O)c2ccc(Oc3ccc4c(c3)C(=O)C(C(=O)NC3CC3)C4=O)cc2C1=O` (stereo not shown) [Example 106, N-cyclopropyl-5-{[2-(cyclopropylcarbamoyl)-1,3-dioxo-2,3-dihydro-1H-inden-5-yl]oxy}-1,3-dioxo-2,3-dihydro-1H-indene-2-carboxamide], the IC50 is around 4 µM.

With `N[C@H](C(=O)C1C(=O)c2ccc(C(=O)c3ccc4c(c3)C(=O)C(C(=O)[C@@H](N)C3CC3)C4=O)cc2C1=O)C1CC1` (stereo partly drawn) [Example 118, 2-[(2S)-2-amino-2-cyclopropylacetyl]-5-{2-[(2S)-2-amino-2-cyclopropylacetyl]-1,3-dioxo-2,3-dihydro-1H-indene-5-carbonyl}-2,3-dihydro-1H-indene-1,3-dione], the inhibition at 5 µM was found to be 75%, the inhibition at 10 µM came out at 94% and the IC50 turned out to be 3.4 µM.

In the case of `O=C1c2ccc(S(=O)(=O)c3ccc4c(c3)C(=O)C(C(=O)[C@H]3CCCN3)C4=O)cc2C(=O)C1C(=O)[C@@H]1CCNC1` (stereo partly drawn) [Example 350, 5-({1,3-dioxo-2-[(3R)-pyrrolidine-3-carbonyl]-2,3-dihydro-1H-inden-5-yl}sulfonyl)-2-[(2R)-pyrrolidine-2-carbonyl]-2,3-dihydro-1H-indene-1,3-dione], the inhibition at 1 µM worked out at 18% and the inhibition at 3 µM is 39%.

As to `CCCC(=O)C1C(=O)c2ccc(S(=O)(=O)c3ccc4c(c3)C(=O)C(C(=O)CCC)C4=O)cc2C1=O` (stereo not shown) [Example 322, 2-butanoyl-5-[(2-butanoyl-1,3-dioxo-2,3-dihydro-1H-inden-5-yl)sulfonyl]-2,3-dihydro-1H-indene-1,3-dione], the inhibition at 10 µM worked out at 40%.

Consider `O=C(Nc1ccc(Cl)cc1)C1C(=O)c2ccc(S(=O)(=O)c3ccc4c(c3)C(=O)C(C(=O)Nc3ccc(Cl)cc3)C4=O)cc2C1=O` (stereo not shown) [Example 87, N-(4-chlorophenyl)-5-({2-[(4-chlorophenyl)carbamoyl]-1,3-dioxo-2,3-dihydro-1H-inden-5-yl}sulfonyl)-1,3-dioxo-2,3-dihydro-1H-indene-2-carboxamide], for which the IC50 is 2.5 µM.

`CC(C)C[C@@H](N)C(=O)C1C(=O)c2ccc(Oc3ccc4c(c3)C(=O)C(C(=O)[C@H](N)CC(C)C)C4=O)cc2C1=O` (stereo partly drawn) [Example 357, 2-[(2R)-2-amino-4-methylpentanoyl]-5-({2-[(2R)-2-amino-4-methylpentanoyl]-1,3-dioxo-2,3-dihydro-1H-inden-5-yl}oxy)-2,3-dihydro-1H-indene-1,3-dione]: the inhibition at 1 µM worked out at 39%, the inhibition at 3 µM is 74% and the IC50 stood at 1.35 µM.

As to `O=C(NCCc1cccc(Cl)c1)C1C(=O)c2ccc(S(=O)(=O)c3ccc4c(c3)C(=O)C(C(=O)NCCc3cccc(Cl)c3)C4=O)cc2C1=O` (stereo not shown) [Example 84, N-[2-(3-chlorophenyl)ethyl]-5-[(2-{[2-(3-chlorophenyl)ethyl]carbamoyl}-1,3-dioxo-2,3-dihydro-1H-inden-5-yl)sulfonyl]-1,3-dioxo-2,3-dihydro-1H-indene-2-carboxamide], the concentration for half-maximal inhibition (IC50) is 3 µM.

For `O=C(NC1CCCC1)C1C(=O)c2ccc(Oc3ccc4c(c3)C(=O)C(C(=O)NC3CCCC3)C4=O)cc2C1=O` (stereo not shown) [Example 107, N-cyclopentyl-5-{[2-(cyclopentylcarbamoyl)-1,3-dioxo-2,3-dihydro-1H-inden-5-yl]oxy}-1,3-dioxo-2,3-dihydro-1H-indene-2-carboxamide], the IC50 turned out to be 2.9 µM.
